This is an account of results in patent publication US3981868A.

The test system of experiment [1] is basal gastric acid secretion. The experiment in a line: inhibition of basal gastric acid secretion (acute gastric fistula rat). In kind it is in vivo, Female Sprague-Dawley rats. The note with it: 10 mg./kg. intraduodenal. As to the method: Inhibition of basal gastric acid secretion was determined in the acute gastric fistula rat as follows. Female Sprague-Dawley rats (Charles River Laboratories) weighing 140-160 grams are fasted in individual cages for 18-24 hours. The rats are then lightly anesthetized with ether and their front teeth extracted to avoid destruction of the plastic cannula. A midline incision is then made and the stomach and duodenum exposed. A flanged polyvinyl tube is inserted into the fundic portion of the stomach and secured with a purse string suture line using 4-0 Mersilene. The rat is then dosed by injection of the compound into the duodenum (1.0 ml. per 100 grams body weight). After dosing, the abdominal wall and skin are closed using metal wound clips. The rat is replaced in a cage containing a longitudinal slit to allow the polyvinyl tube to hang freely. An 8 ml. plastic collecting tube is attached to the flanged cannula and hangs freely below the cage. The first 30 minute sample is discarded designating this time as zero. The collecting tube is attached again and samples removed at the end of 60 and 120 minutes. The hourly samples are then transferred to a 15 ml. centrifuge tube and centrifuged for 5-10 minutes. Total and sediment volume are then recorded with the supernatant volume being used as volume of secretion. A 1 ml. or less aliquot is then removed and placed in a 50 ml. beaker containing 10 ml. of distilled water. This sample is then titrated using 0.01N NaOH to pH 7.0 using a Beckman zeromatic pH meter. Volume, titratable acidity (meq/L) and total acid output (μ eq/hour) are recorded. Percent inhibition is determined by comparison with the appropriate control. Groups of three rats were used. All compounds are administered in vehicle (0.5% methocel, 0.4% Tween 80, saline) at a constant volume of 1 ml./100 gram rat. Samples were sonicated with care to prevent overheating.

The subject of experiment [2] is diastolic blood pressure. The experiment in a line: hypotensive activity in anesthetized rats (minimal dose lowering diastolic blood pressure about 10 mm.). In kind it is in vivo, Male Wistar strain rats. The note with it: Rattus norvegicus; intravenous; dose producing a decrease of about 10 mm. in diastolic blood pressure. On the procedure:
This procedure is a modification of the technique described by Pike et al., Prostaglandins, Nobel Symposium 2, Stockholm, June, 1966; p. 165.
Male Wistar strain rats (Royal Hart Farms) averaging approximately 250 grams in weight were fastened to rat boards in a supine position by means of canvas vests and limb ties. The femoral area was infiltrated subcutaneously with lidocaine and the iliac artery and vein were exposed and cannulated. Arterial blood pressure (systolic/diastolic) was recorded using a Statham P23 Db pressure transducer-Offner dynograph system. To obtain a stable blood pressure, the animals were anesthetized before use with pentobarbital, 30 mg./kg. of body weight intravenously, and also were given hexamethonium bitartrate, 2 mg./kg., of body weight intravenously. The test compounds were prepared by ultrasonic dispersion in a saline-Tween 80 vehicle. A constant intravenous dose volume of 0.5 ml. was administered and test doses ranged from 0.1 to 10.0 mg./kg. of body weight. Increasing or decreasing doses were selected depending on the dose response obtained. In Table I below are set forth the minimal doses required to produce a decrease of about 10 mm. in diastolic blood pressure for typical compounds of the present invention.

The test system of experiment [3] is Microsporum canis ATCC 10214. The experiment in a line: agar-dilution streak-plate antifungal assay (1). In kind it is cell-based. To be noted: ATCC10214, read-out: Minimal inhibitory conc. On the procedure: (§1) The novel compounds of the present invention are also useful as antimicrobial agents. […] In this assay, the compounds to be tested are made up to contain 2.5 mg. of test compound per milliliter of solution. Observing sterile techniques, two-fold serial dilutions are made of each test solution. One milliliter of each of the original solutions and of each of the serial dilutions is then added to 9 ml. of warm sterile nutrient agar capable of supporting growth of the bacterial test cultures. A second set of agar dilutions is prepared identical to the first except that the nutrient agar is designed to support the growth of the fungal test cultures. […] The test bacteria and yeast-like fungi are prepared for use by growing in broth overnight. The spores of the filamentous fungi are harvested from mature agar slant cultures and are suspended in sterile physiological saline solution. A loopful of each of the resulting live suspensions is then, still employing sterile techniques, streaked upon the surfaces of each of the agar plates and the resulting streaked plates are then incubated. After an appropriate period of time, each of the streaks on each of the plates is inspected visually and the extent, if any, of bacterial or fungal growth is noted. The minimal inhibitory concentration (expressed in micrograms per milliliter) is defined as the concentration of test compound causing complete inhibition of growth of any particular organism. In a representative operation, and merely by way of illustration, the minimal inhibitory concentration of typical compounds of the present invention against a variety of test organisms as determined in the above-described assay are set forth in Tables II and III below: […]

The subject of experiment [4] is Microsporum gypseum ATCC 14683. In words: agar-dilution streak-plate antifungal assay (2). In kind it is cell-based. To be noted: Nannizzia gypsea, ATCC14683, read-out: Minimal inhibitory conc. As to the method: as §1
In experiment [5] the test system is Trichophyton tonsurans NIH 662. The experiment in a line: agar-dilution streak-plate antifungal assay (3). To be noted: NIH662, read-out: Minimal inhibitory conc. In kind it is cell-based. As to the method: as §1
Experiment [6] has as its system Trichophyton mentagrophytes E 11?
The experiment in a line: agar-dilution streak-plate antifungal assay (4). In kind it is cell-based. The note with it: read-out: Minimal inhibitory conc. As to the method:
as §1

Experiment [7] deals with Trichophyton rubrum E 97. In words: agar-dilution streak-plate antifungal assay (5). The note with it: E97, read-out: Minimal inhibitory conc. In kind it is cell-based. On the procedure:
as §1

For experiment [8], the system named is Mycobacterium smegmatis ATCC 606. In words: agar-dilution streak-plate antibacterial assay (6). In kind it is cell-based. To be noted: Mycolicibacterium smegmatis, ATCC606, read-out: Minimal inhibitory conc. As to the method: as §1
The subject of experiment [9] is Staphylococcus aureus Rose ATCC 14154. The experiment in a line: agar-dilution streak-plate antibacterial assay (7). In kind it is cell-based. To be noted: ATCC14154, read-out: Minimal inhibitory conc. On the procedure:
as §1

The subject of experiment [10] is Streptococcus pyogenes C 203. The experiment in a line: agar-dilution streak-plate antibacterial assay (8). In kind it is cell-based. To be noted: C203, read-out: Minimal inhibitory conc. On the procedure: as §1
Experiment [11] deals with gastric acid secretion. In words: inhibition of gastric acid secretion (pylorus-ligated rat, Shay rat). In kind it is in vivo, rats (male, CFE strain). The note with it: intraduodenal dose 100 mg./kg. body weight, 3 hours, 20% or more considered active. As to the method: The novel compounds of the present invention are also effective inhibitors of gastric acid secretion and of ulcer development in experimental animals, and thus are potentially valuable as agents for the control of gastric acid secretion and of gastric erosion and as anti-ulcer agents. Gastric acid secretion inhibitory action is usually measured by the "Shay rat" procedure ^(1,2) with some modifications as follows.
The rats (male, CFE strain) were starved for 48 hours (water was given ad libitum) to permit evacuation of stomach contents. On the morning of the experiment, under ether anesthesia, the abdominal region was shaved and a midline incision (1-11/2 inches) was made with a scalpel. With the help of a closed curved hemostat the duodenum was picked up. Upon getting the duodenum into view fingers were used to pull the stomach through the opening, the stomach was then gently manipulated with fingers to rid the stomach of air and residual matter which were pushed through the pylorus. Two 5-inch sutures were drawn under the pyloric-duodenal juncture. A ligature, at the juncture, was formed with one of the threads. The second ligature was also formed by not tightened.
The test compound or the vehicle, usually 1 ml./100 g. body weight, were injected into the duodenum as close as possible to the first ligature. After injection the second ligature was tightened below the injection site to minimize leakage. The stomach was placed back through the opening into the abdominal cavity, the area of incision was washed with saline and the incision was closed with autoclips. (Ocasionally, instead of an intraduodenal injection, animals were dosed by the oral or subcutaneous route. In the latter case, dosing was done thirty to sixty minutes before the operation).
The abdominal cavity was exposed by cutting with scissors and the esophagus close to the stomach was clamped off with a hemostat, the stomach was removed by cutting above the hemostat (the espohagus was cut) and between the two sutures. Extraneous tissue was removed, the stomach washed with saline and blotted on gauze. A slit was carefully made in the stomach which was held over a funnel and the contents were collected in a centrifuge tube. The stomach was further cut along the outside edge and turned inside out. Two ml. of water were used to wash the stomach contents into the respective centrifuge tube. The combined stomach contents and wash were then centrifuged out for 10 minutes in the International Size 2 Centrifuge (setting at 30). The supernatant was collected, volume measured and recorded, 2 drops of phenolphthalein indicator (1% in 95% ethanol) were added and the solution was titrated with 0.02N NaOH (or with 0.04N NaOH when large volumes of stomach contents were encountered) to pH 8.4 (because of usual coloring of the stomach contents, phenolphthalein was only used to permit visual indication that the end point was near) and the amount of acid present was calculated.
Compounds inducing inhibition of gastric acid secretion of 20% or more were considered active. In a representative operation, and merely by way of illustration, the results obtained with this assay with typical compounds of the present invention are given in Table IIIA.

In experiment [12] the test system is dl-PGE1-induced contraction of gerbil colon. The experiment in a line: inhibition of dl-PGE1-induced contraction of gerbil colon. To be noted: approximate.
Description: Testing for prostaglandin antagonist action is carried out in the following manner.
Sections of ascending colon, approximately 20 mm. long, from mature male gerbils (Meriones unguiculatus) weighing 70-80 g. were mounted in DeJalon's solution (154 mM NaCl; 5.95 mM NAHCO3 ; 278 mM glucose, 5.64 mM KCl and .27 mM Cacl2 in 20 ml. tissue baths) (L. and K Glass Co., Lynnhurst, N.J.). The medium was continually gassed with a mixture of 95% 02 -5% CO2 and maintained at 37°C. The tissues were suspended via silk suture threads between a glass hook at the base and a model FT .03C force displacement transducer (Grass Instrument, Quincy, Mass.).
After mounting, tissues were allowed to stabilize 15-20 minutes during which time adjustments were made to establish and maintain a 0.5 g. resting tension on the muscle. Thereafter, test cycles of 3-5 minutes were begun and consisted of a 1 minute exposure to the potential antagonist, if called for, followed by a 1 minute exposure to the prostaglandin agonist, a 15-30 sec. washout and a recovery period of 2-2.5 minutes. […] During the washout period, the tissue was rinsed with a measured amount equalling 8 volumes of medium. Muscle relaxation was virtually complete by the end of the washout period.
Following stabilization, muscles were exposed 2 to 3 times to this concentration of dl-PGE1 until a consistent response was recorded. Once maximal responses are established, test cycles with potential antagonists were commenced and were followed alternatively with prostaglandin-only test cycle. […] The contraction of the muscle induced by 200 ng./ml. dl-PGE1 following exposure to a given concentration of the potential antagonist was always compared to the response of the tissue to that level of dl-PGE1 in the immediately preceding cycle. Using a series of potential antagonist concentrations, an approximate ID50 (concentration at which 50% inhibition was observed) was established.
The test system of experiment [13] is gerbil ascending colon. In words: contraction of gerbil colon by dl-PGE1. The note with it: final concentration of 200 ng./ml.; preliminary tests.
Description: Sections of ascending colon, approximately 20 mm. long, from mature male gerbils (Meriones unguiculatus) weighing 70-80 g. were mounted in DeJalon's solution (154 mM NaCl; 5.95 mM NAHCO3 ; 278 mM glucose, 5.64 mM KCl and .27 mM Cacl2 in 20 ml. tissue baths) (L. and K Glass Co., Lynnhurst, N.J.). The medium was continually gassed with a mixture of 95% 02 -5% CO2 and maintained at 37°C. The tissues were suspended via silk suture threads between a glass hook at the base and a model FT .03C force displacement transducer (Grass Instrument, Quincy, Mass.). Contractions were recorded on a Poly-Viso polyraph (Sanborn Co., Cambridge, Mass.
After mounting, tissues were allowed to stabilize 15-20 minutes during which time adjustments were made to establish and maintain a 0.5 g. resting tension on the muscle. Thereafter, test cycles of 3-5 minutes were begun and consisted of a 1 minute exposure to the potential antagonist, if called for, followed by a 1 minute exposure to the prostaglandin agonist, a 15-30 sec. washout and a recovery period of 2-2.5 minutes. […] During the washout period, the tissue was rinsed with a measured amount equalling 8 volumes of medium.
Following stabilization, muscles were exposed 2 to 3 times to this concentration of dl-PGE1 until a consistent response was recorded. […]

In brackets after ≈: the same amount, converted by molar mass.

With `CCCCCC/C=C/[C@H]1CCC(=O)[C@@H]1CCCCCCC(=O)N(C(=O)Nc1ccc(N(C)C)cc1)c1ccc(N(C)C)cc1` (relative stereo) [4,4'-bis(dimethylamino)-N-{7-[trans-2-(1-octenyl)-5-oxocyclopentyl]-heptanoyl}carbanilide], in [1], the “% Inhibition after 120 minutes, Total Acid Output” value was 72% and the “% Inhibition after 120 minutes, Total Acidity” value was determined as 60%.

Compound `CCCCCC/C=C/[C@H]1CCC(=O)[C@@H]1CCCCCCC(=O)NCCCN(C)C` (relative stereo) showed a minimal effective dose in [2] of 0.4 mg/kg. Moreover, the MIC was 100 µg/mL (≈ 246 µM) in [3]; 100 µg/mL (≈ 246 µM) in experiment [4]; 100 µg/mL (≈ 246 µM) in [5]; 25 µg/mL (≈ 61.5 µM) in experiment [6]; 100 µg/mL (≈ 246 µM) in [7]; 10 µg/mL (≈ 24.6 µM) in experiment [8]. Besides, the MIC in experiment [9] was 50 µg/mL (≈ 123 µM); in experiment [10], 10 µg/mL (≈ 24.6 µM). Besides, the “Percent Inhibition of gastric acid secretion” value in experiment [11] is on record as 76%. Moreover, in experiment [12] (sub-maximal challenge, 20 ng./ml. dl-PGE1, 50% inhibition of maximum response), the “ID50 vs. 20 ng. of PGE1 /ml.” value came to 0.5 µg/mL.

`CCCCCC/C=C/[C@H]1CCC(=O)[C@@H]1CCCCCCC(=O)NO` (relative stereo): the minimal effective dose in experiment [2] is 2 mg/kg. The MIC in [3], in [4], in experiment [5], in [6], in experiment [7] and in experiment [8] was 250 µg/mL (≈ 741 µM) each time. Moreover, the MIC in [9] and in [10] was 250 µg/mL (≈ 741 µM) in each case. For the same compound, the “Percent Inhibition of gastric acid secretion” value in [11] was found to be 38%. In experiment [12] (maximal challenge, 200 ng./ml. dl-PGE1), the “ID50 vs. 200 ng. of PGE1 ml.” value was found to be 12 µg/mL.

As for `CCCCCC/C=C/[C@H]1CCC(=O)[C@@H]1CCCCCCC(=O)Nc1cccnc1` (relative stereo) [N-(pyridyl-3)-9-oxo-13-trans-prostenamide], in experiment [2], the minimal effective dose was 2 to 8 mg/kg. The MIC in [10] came to 5 µg/mL (≈ 12.5 µM). Moreover, in experiment [1], the “% Inhibition after 120 minutes, Total Acid Output” value is listed as 54% and the “% Inhibition after 120 minutes, Total Acidity” value turned out to be 30%.

Turning to `CCCCC[C@H](O)/C=C/[C@H]1[C@H](O)CC(=O)[C@@H]1CCCCCCC(=O)O` (relative stereo) [dl-PGE1, prostaglandin-E1], the muscle contraction result in experiment [13] was “maximal muscle contraction”.
